Test results published in patent US8663607B2, “Ferrate(VI)-containing compositions and methods of using ferrate(VI)” (Battelle Memorial Institute, priority 2007, dated 2014).
Like-named read-outs stand apart in the source and are kept apart here.

Assays:
[1] = at 71° C.; pure (80-100%) or moderate purity (50-80%)
Procedure: The more demanding isothermal test conditions were chosen for the preliminary viability assessment testing. In this series of tests, a Blue M Electric Oven, Model OV-490A-3 (S/N OV-11311, BMI No. N-00154, 120V Single Phase, 38-260° C.), was used. The oven was set to maintain an air temperature of approximately 71.5° C. A mercury thermometer immersed in silicone oil was added to the oven for manual tracking of the temperature, and a HOBO model H08-002-02 external temperature logger (Onset Computer Corp., S/N 5948-9820) was used for automated temperature data acquisition. Four ˜1.0 g samples of K2FeO4 TG were transferred to clean 12 mL glass vials with Teflon-lined caps; these samples with purity from ˜75-93% were chosen specifically to represent a variety of initial purity values. Before closure, the headspace of each vial briefly was purged (˜20 sec at ˜250 cm^3 (STP)) with ultra-high purity (UHP) argon gas to minimize trapped moisture.
The samples were removed from the oven at 1, 2, 5, 7, 12, 27, 48, and 98 days. The purity of each sample was determined by the technique described in Section 3.2.1. Each vial was assayed three times at each sampling point in order to calculate standard deviation and provide an estimate of precision. When returning the vials to the isothermal oven, the headspace of each vial was purged briefly with UHP argon, as before.

[2] = Thermal stability of K2FeO4, cycling temperature profile (AR 70-38); type: physicochemical; conditions: cycling daily from 23° C. to 71° C. and back again
Procedure: The cycling temperature profile specified in AR 70-38 also was studied. An oven (Fisher Scientific model No. 48) was outfitted with a programmable temperature controller (Omega Engineering model CN3251) and a small fan in order to provide air circulation. Temperature data acquisition was performed using a HOBO data logger (Onset Computer Corp., model HTEA −39+123° C.). The temperature controller was programmed to meet the specifications of AR 70-38 Sec. II, Table 2-2 (Storage and Transit Conditions). Specifically, the oven was programmed to remain above 66° C. for at least 5 hrs and to reach a peak temperature of 71° C. for not more than 1 hr. The programmed parameters appear below in Table 1.

[3] = Treatment of unstained HAP disk (staining by the reagent itself); conditions: disk D: unstained disk, 100 μL pH 7 HEPA buffer, 1.3 mg
Procedure: Tea staining Procedure: A calcium-deficient hydroxyapatite (HAP) disk (Clarkson Chromatography Products) was placed into a 50-mL centrifuge tube with 10 mL of tea solution. The centrifuge tube was gently shaken by hand for 15 minutes. The tea solution was decanted and replaced with 10 mL of HPDI water and vortexed for 30 seconds. The water was decanted and replaced with 10 additional mL of HPDI water and vortexed for 30 seconds. The disk was removed with forceps and patted dry with a tissue. The disk was allowed to air dry at room temperature for at least one hour.
Oxidation resistant chelating buffer: 0.25M 1-Hydroxyethylidenediphosphonic acid (etridonic acid) (Dequest® 2010, Thermphos) (HEPA) was pH adjusted by microtitration with 10N NaOH. 1.28 g of 1-Hydroxyethylidenediphosphonic acid was to a 25-mL volumetric flask and brought to volume with HPDI water. The solution was transferred to a 50-mL beaker with a stir bar and pH adjusted using 10.04N NaOH, monitored with a calibrated pH meter. Aliquat 336® (Cognis) (also suitable is Aliquat 134®) (N-methyl-tri-(n-octyl)ammonium chloride), (N-methyl TOA) or “HEPA” chelating pH Buffer: 2.5-μL of N-methyl TOA was added to 5 mL of pH 7 HEPA buffer and sonicated for 1 minute. pH 7 Sodium Dodecyl Sulfate (SDS)/HEPA Buffer: 10 mg of SDS was added to 5 mL of pH 7 HEPA buffer and sonicated for 1 minute. pH 8 SDS/HEPA Buffer: 10 mg of SDS was added to 5 mL of pH 8 HEPA buffer and sonicated for 1 minute.
• A. A tea stained disk was placed into the bowl of the bowl of a watch glass and 100 μL of pH 7 HEPA buffer was pipetted onto the disk surface. 3.7 mg of potassium ferrate(VI) was added to the disk surface and mixed gently. […] The disk was rinsed at 10 minutes with HPDI water. […] 1 mL of pH 7 HEPA buffer was added followed by 9 mL of HPDI water. 9.7 mg of potassium ferrate(VI) was added. The tube was gently hand shaken for 10 minutes. The disk was removed and rinsed with HPDI water. […] 10 mg of potassium ferrate(VI) was added to 1 mL of pH 7 HEPA buffer in a 50 mL centrifuge tube. 9 mL HPDI water was added, and the solution was shaken for a few seconds followed by the addition of a tea stained HAP disk. The disk was removed at 10 minutes and rinsed with HPDI water. […] 1.3 mg of potassium ferrate(VI) added and mixed into the solution. […] 1.4 mg of potassium ferrate(VI) was added to the disk surface and mixed gently. […] The reaction was allowed to continue for 5 minutes. […] The disk was rinsed several times with HPDI water. 100 μL of pH 7 HEPA buffer was pipetted onto the disk surface and allowed to react for 5 minutes.

- stable to storage [1]: at least 98 days
- stable to storage [2]: at least 82 days
Substance: potassium ferrate(VI)
- L* (lightness/darkness) [3]: 103.4
- a* (blue/red) [3]: −2.2
- appearance of disk after treatment [3]: very slight yellow tint
- b* (yellow/green) [3]: 0.5
- reflectance of visible light at 450 nm [3]: 105.246
- reflectance of visible light at 750 nm [3]: 102.793
- ΔE (versus tea stain) [3]: 20.34
